This is an account of results in ChEMBL document CHEMBL1201862, “PubChem BioAssay data set” (2004).

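Following 48 hours of exposure in 96-well plates, responses at five concentrations were used to interpolate endpoints linearly. Here, GI50 denotes the concentration required for 50% inhibition of growth.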 Active and inactive are the calls of the source. Rule as the data show it: active = GI50 up to about 1.1 µM and inactive = higher. Where only a bound is given, the exact number is not on record here.

Test systems include DMS-114; DMS-273; HOP-18; KM-20L2; LXFL 529; SNB-78; XF498; MDA-N; RXF 631.
Common to all, as to experiment: NCI anticancer screen, dose series, 48 h

`CCc1c(-c2coc(CC/C(C)=C/c3ccccc3)n2)oc(OC)c(C)c1=O`: the GI50 in the test with DMS-114 is < 0.01 µM (active); in the test with DMS-273, 10.1 µM (inactive); in the test with HOP-18, > 57.3 µM (inactive); in the test on KM-20L2 it was 28.5 µM (inactive); in the test with LXFL 529, 5.96 µM (inactive); in the test on SNB-78, 53.3 µM (inactive). Besides, the GI50 in the test with XF498 was 17.7 µM (inactive).
As for `c1cc2c(ncc3cscc32)s1`, the GI50 in the test on DMS-114, in the test with DMS-273, in the test on LXFL 529, with MDA-N, with RXF 631 and in the test on SNB-78 was > 100 µM (inactive) each time. Moreover, in the test on XF498, the GI50 was > 100 µM (inactive).
Consider `CCC1(CN(C)C)CC/C(=C\c2ccc3c(c2)OCO3)C1=O` (configuration not stated), for which the GI50 in the test on DMS-273 is > 100 µM (inactive); in the test on HOP-18 it was > 100 µM (inactive); in the test on KM-20L2, 47.2 µM (inactive); in the test on LXFL 529, > 100 µM (inactive); in the test with RXF 631 it was > 100 µM (inactive); with SNB-78, > 100 µM (inactive).
Take `O=C1c2ccccc2C(=O)N1CCN(CCN1C(=O)c2ccccc2C1=O)Cn1cccn1`: the GI50 with DMS-114 is 19.5 µM (inactive); in the test with DMS-273 it was 46.1 µM (inactive); in the test on KM-20L2, > 100 µM (inactive); with LXFL 529, > 100 µM (inactive); in the test with RXF 631, 29 µM (inactive); with SNB-78, > 100 µM (inactive). Further, in the test on XF498, the GI50 is > 100 µM (inactive).
In the case of `C=CC1(C)CCC(C(C)C(=O)C(C=C(C)C)OC(C)=O)C12C(=O)Oc1ccccc1C2=O` (configuration not stated), the GI50 was 26 µM (inactive) with DMS-114; 23.4 µM (inactive) in the test on DMS-273; 95.3 µM (inactive) in the test on HOP-18; 51.3 µM (inactive) with KM-20L2; 37.8 µM (inactive) in the test on LXFL 529; 79.4 µM (inactive) in the test on SNB-78. The GI50 with XF498 is 54 µM (inactive).
Take `COC(=O)c1ccc(/C=C/S(=O)(=O)c2ccccc2)cc1`: the GI50 in the test with DMS-114, with DMS-273, in the test on KM-20L2, in the test with LXFL 529, in the test on RXF 631 and in the test with SNB-78 was > 100 µM (inactive) each time. The GI50 in the test on XF498 was > 100 µM (inactive).
With `N#Cc1ccccc1C(Cl)(Cl)c1cnccn1`, the GI50 in the test on DMS-114 is 22.4 µM (inactive); in the test with DMS-273, 37.2 µM (inactive); in the test with HOP-18, > 100 µM (inactive); with LXFL 529, 75.9 µM (inactive); with SNB-78, 46.3 µM (inactive); with XF498, 17.9 µM (inactive).
In the case of `COC(=O)c1ccc2n[se]nc2c1`, the GI50 in the test with DMS-114, in the test on DMS-273, in the test on HOP-18, in the test on KM-20L2, with LXFL 529 and in the test with RXF 631 was > 100 µM (inactive) each time. In addition, the GI50 in the test with SNB-78 and with XF498 was > 100 µM (inactive) throughout.
On to `CC(=O)Nc1ccc(C2C(C(=O)Nc3ccccc3C)=C(C)NC(C)=C2C(=O)Nc2ccccc2C)cc1`, for which the GI50 in the test with DMS-114, in the test with DMS-273, with HOP-18, in the test on KM-20L2, with LXFL 529 and with RXF 631 was > 100 µM (inactive) each time. For the same compound, the GI50 with SNB-78 and in the test on XF498 was > 100 µM (inactive) each time.
As for `Cc1ccc(S(=O)(=O)NC2(C=O)CCCC3CCCCC32)cc1` (configuration not stated), the GI50 with DMS-114, in the test with DMS-273, in the test with HOP-18, in the test on KM-20L2, in the test on LXFL 529 and with RXF 631 was > 100 µM (inactive) in each case. In the test on SNB-78, the GI50 is > 100 µM (inactive).
Turning to `CCN1CCC(O)(/C=C/c2ccccc2)C(C(=O)/C=C/c2ccccc2)C1` (configuration not stated), the GI50 was 2.08 µM (inactive) in the test with DMS-114; 1.68 µM (inactive) with DMS-273; 5.64 µM (inactive) in the test with HOP-18; 2.62 µM (inactive) in the test on KM-20L2; 1.87 µM (inactive) in the test with LXFL 529; 4.1 µM (inactive) in the test on RXF 631. The GI50 is 3.33 µM (inactive) with SNB-78 and 5.65 µM (inactive) in the test with XF498.
For the compound `CCN(CC)CCNc1ccc(C)c2sc3ccc(O)cc3c(=O)c12`, the GI50 in the test on DMS-114 is 0.982 µM (active); in the test on DMS-273, 0.162 µM (active); in the test on HOP-18, 1.34 µM (inactive); with KM-20L2, 2.14 µM (inactive); in the test with LXFL 529, 1.28 µM (inactive); in the test with SNB-78, 1.76 µM (inactive). In addition, the GI50 in the test with XF498 is 1.2 µM (inactive).
`COc1ccc(NC(=O)CC(=O)N/N=C/c2ccc(N(CCC#N)S(C)(=O)=O)cc2)cc1`: the GI50 in the test on DMS-114, in the test with DMS-273, with HOP-18, in the test with KM-20L2, in the test on LXFL 529 and in the test with RXF 631 was > 100 µM (inactive) each time. In addition, the GI50 with SNB-78 was > 100 µM (inactive).
On to `O=C1NC(=O)C(C(=O)C(=O)Nc2cc(Cl)ccc2Cl)C(=O)N1`, for which the GI50 in the test with DMS-114, in the test with KM-20L2, in the test on LXFL 529, with RXF 631 and with SNB-78 was > 100 µM (inactive) throughout.
